Results from patent US20080269213A1, “8-Hydroxyquinoline compounds and methods thereof” (Wyeth, priority 2006, published 2008).
Like-named read-outs stand apart in the source and are kept apart here.

Key:
Agg-1 = target: T1, Agg-1 (Homo sapiens, UniProt O75173); experiment: Agg-1 FRET assay; assay type: biochemical; conditions: for IC50: read-out: Agg1 IC50; for inhibition at 22.2 µM: @ 22200 nM
T1 sequence (O75173 213-837): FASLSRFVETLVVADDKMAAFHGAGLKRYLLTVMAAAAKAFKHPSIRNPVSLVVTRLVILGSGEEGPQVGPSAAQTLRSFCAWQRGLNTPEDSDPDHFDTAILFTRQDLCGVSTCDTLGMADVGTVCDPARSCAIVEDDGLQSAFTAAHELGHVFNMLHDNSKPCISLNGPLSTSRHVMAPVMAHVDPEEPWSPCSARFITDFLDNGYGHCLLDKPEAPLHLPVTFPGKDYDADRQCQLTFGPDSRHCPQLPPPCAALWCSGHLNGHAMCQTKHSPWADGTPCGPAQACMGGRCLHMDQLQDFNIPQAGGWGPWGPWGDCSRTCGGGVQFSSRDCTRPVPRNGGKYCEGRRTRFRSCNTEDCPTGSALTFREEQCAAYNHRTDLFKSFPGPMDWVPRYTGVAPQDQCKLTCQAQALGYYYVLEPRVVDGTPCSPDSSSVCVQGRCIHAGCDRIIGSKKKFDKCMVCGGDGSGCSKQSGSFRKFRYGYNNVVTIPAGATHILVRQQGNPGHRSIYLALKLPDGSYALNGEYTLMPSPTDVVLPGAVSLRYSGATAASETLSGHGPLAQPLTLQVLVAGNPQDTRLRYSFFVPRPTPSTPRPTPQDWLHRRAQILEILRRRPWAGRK
Source text: The Agg-1/Agg-2 FRET data for N-[(8-hydroxyquinolin-2-yl)(phenyl)methyl]-2-phenoxyacetamide and 2-{[(phenoxyacetyl)amino](phenyl)methyl}quinolin-8-yl phenoxyacetate is presented in Table 1.

[1] = target: T2, recombinant human Aggrecanase-2 Agg2-Phe628 (Homo sapiens, UniProt Q9UNA0); experiment: Aggrecanase 2 in vitro enzyme assay (Agg-2 FRET, quenched fluorescent peptide substrate); assay type: biochemical; parameters: purified recombinant human Aggrecanase-2 Agg2-Phe628 (MW=41,737); This is a truncated form of full-length human aggrecanase-2; made in house; host or cells: CHO cells; conditions: for Agg-2 FRET Median PCT INHIB: concentration not given
T2 sequence (Q9UNA0 262-628 limits assumed): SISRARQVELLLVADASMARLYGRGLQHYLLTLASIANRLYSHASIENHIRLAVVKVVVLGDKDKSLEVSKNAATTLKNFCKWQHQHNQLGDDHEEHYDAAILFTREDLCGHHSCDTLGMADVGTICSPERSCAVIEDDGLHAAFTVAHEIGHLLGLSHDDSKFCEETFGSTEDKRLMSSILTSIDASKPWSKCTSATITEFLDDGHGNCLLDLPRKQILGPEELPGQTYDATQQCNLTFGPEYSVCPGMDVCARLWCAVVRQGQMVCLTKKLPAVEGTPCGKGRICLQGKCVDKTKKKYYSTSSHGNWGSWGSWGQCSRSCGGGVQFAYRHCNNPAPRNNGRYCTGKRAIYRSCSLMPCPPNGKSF
Procedure: A continuous assay was used in which the substrate was a synthetic peptide containing a fluorescent group (o-aminobenzyl, Abz), which was quenched by energy transfer to a 2,4-dinitrophenyl group (Dnp). The buffer used in this assay was 50 mM HEPES, pH 7.5, 100 mM NaCl, 5 mM CaCl2, 0.1% CHAPS, 5% glycerol. The source of enzyme was purified recombinant human Aggrecanase-2 Agg2-Phe628 (MW=41,737). This is a truncated form of full-length human aggrecanase-2 that was expressed in CHO cells and purified. The final concentration of Agg2-Phe628 was 0.5 μg/ml. […] It is a synthetic peptide that is designed after a portion of brevican, one of the naturally occurring substrates of Aggrecanase-2, of the sequence Abz-[…]-Dap(Dnp)-KK—NH2 (mass=1740). The concentration of this substrate stock was spectrophotometrically determined using the extinction coefficient at 354 nm of 18,172 M^−1cm^−1. […] The final concentration of substrate in the assay was 25 μM.
Test compounds (in duplicate) were serially diluted from 2 mM to 0.01 μM in 100% DMSO. The total reaction volume was 100 μl. The buffer and enzyme were added first followed by addition of 10× inhibitor from the dilution plate. Enzyme and buffer alone samples were included in order to obtain the maximal rate of substrate cleavage. […] Then substrate was added, mixed and the reaction monitored for 40 min at 30° C. in kinetic mode using λex: 340 nm and % λem: 420 (GeminiXS Molecular Devices).

[2] = read-out: Agg-2 FRET Median IC50

Compound | IC50 (Agg-1) [µM] | IC50 ([1]; read-out: Agg2 IC50) [µM] | further results
O=C(COc1ccccc1)NC(c1cn2c(n1)COCC2)c1cc(Cl)c2cccnc2c1O (stereo not shown) [Example 178, N-[(5-chloro-8-hydroxyquinolin-7-yl)(5,6-dihydro-8H-imidazo[2,1-c][1,4]oxazin-2-yl)methyl]-2-phenoxyacetamide] | > 20 | 6.2 | 
O=C(CNCc1ccccn1)NC(c1ccccc1)c1cc(Cl)c2cccnc2c1O (stereo not shown) [Example 227, N-[(5-chloro-8-hydroxyquinolin-7-yl)(phenyl)methyl]-N2-(pyridin-2-ylmethyl)glycinamide] | > 50 | 3.87 | 
COc1ccc(C(NC(=O)Cc2ccccc2)c2cc(Cl)c3cccnc3c2O)cc1OCc1ccccc1 (stereo not shown) [N-[[3-(benzyloxy)-4-methoxyphenyl](5-chloro-8-hydroxyquinolin-7-yl)methyl]-2-phenylacetamide] |  |  | inhibition at […] (Agg-1; @ 1200 nM, read-out: Agg1 %): 36%; inhibition at […] ([1]; @ 1200 nM): 47%
CCCCC#Cc1ccc(C(NC(=O)COc2ccccc2)c2cc(Cl)c3cccnc3c2O)cc1 (stereo not shown) [N-[(5-chloro-8-hydroxyquinolin-7-yl)(4-hex-1-yn-1-ylphenyl)methyl]-2-phenoxyacetamide] |  |  | inhibition at 50 µM (Agg-1; @ 50000 nM, read-out: Agg1 %): 47%; inhibition at 33.3 µM ([1]; @ 33300 nM): 48%
CC1(C)CCc2cc(C(NC(=O)COc3ccccc3)c3cc(Cl)c4cccnc4c3O)ccc2O1 (stereo not shown) [Example 171, N-[(5-chloro-8-hydroxyquinolin-7-yl)(2,2-dimethyl-3,4-dihydro-2H-chromen-6-yl)methyl]-2-phenoxyacetamide] |  | 1.4 | inhibition at 66.7 µM (Agg-1; @ 66700 nM, read-out: Agg1 %): 55%
O=C(COc1ccccc1)NC(c1ccccc1)c1cc(Cl)c2ccccc2c1O (stereo not shown) [N-[(4-chloro-1-hydroxy-2-naphthyl)(phenyl)methyl]-2-phenoxyacetamide] | > 22 | > 67 | Agg-2 FRET Median PCT INHIB [1]: 31%
O=C(CNCc1cccnc1)NC(c1ccccc1)c1cc(Cl)c2cccnc2c1O (stereo not shown) [Example 228, N-[(5-chloro-8-hydroxyquinolin-7-yl)(phenyl)methyl]-N2-(pyridin-3-ylmethyl)glycinamide] | > 67 | > 11 | Agg-2 FRET Median PCT INHIB [1]: 32%
O=C(COc1ccccc1)NC(c1ccccc1)c1cc(N2CCCC2)c2cccnc2c1O (stereo not shown) [N-[(8-hydroxy-5-pyrrolidin-1-ylquinolin-7-yl)(phenyl)methyl]-2-phenoxyacetamide] |  | 10.5 | inhibition at 22.2 µM (Agg-1; read-out: Agg1 %): 49%; IC50 [1, 2]: 10.5 µM
O=C(COc1ccccc1)NC(c1cc(Cl)c2cccnc2c1O)c1cc2ccccc2c2ccccc12 (stereo not shown) [N-[(5-chloro-8-hydroxyquinolin-7-yl)(9-phenanthryl)methyl]-2-phenoxyacetamide] |  |  | inhibition at 33 µM (Agg-1; @ 33000 nM, read-out: Agg1 %): 54%; inhibition at 11 µM ([1]; @ 11000 nM): 51%
O=C(COc1ccccc1)NC(c1cc2n(n1)CCC2)c1cc(Cl)c2cccnc2c1O (stereo not shown) [Example 179, N-[(5-chloro-8-hydroxyquinolin-7-yl)(5,6-dihydro-4H-pyrrolo[1,2-b]pyrazol-2-yl)methyl]-2-phenoxyacetamide] | > 20 | ~2.5 | 
Cc1ccc(-c2cccc(C(Cc3cc(Cl)c4cccnc4c3O)NC(=O)COc3ccccc3)c2)s1 (stereo not shown) |  |  | inhibition at 66.7 µM (Agg-1; % inhibition @ 66.7 μM, read-out: Agg-1 IC50 (μM) or % Inhibition): 42%; inhibition at 22 µM ([1]; read-out: Agg-2 IC50 (μM) or % Inhibition): 58%
Cn1nnc2cc(C(NC(=O)COc3ccccc3)c3cc(Cl)c4cccnc4c3O)ccc21 (stereo not shown) [Example 177, N-[(5-chloro-8-hydroxyquinolin-7-yl)(1-methyl-1H-1,2,3-benzotriazol-5-yl)methyl]-2-phenoxyacetamide] | > 20 | 1.3 | IC50 [1, 2]: 1.3 µM
O=C(COc1ccccc1)NC(c1ccccc1F)c1cc(Cl)c2cccnc2c1O (stereo not shown) [N-[(5-chloro-8-hydroxyquinolin-7-yl)(2-fluorophenyl)methyl]-2-phenoxyacetamide] |  |  | inhibition at 22.2 µM (Agg-1; read-out: Agg1 %): 46%
C=CCOc1ccc(C(NC(=O)COc2ccccc2)c2cc(Cl)c3cccnc3c2O)cc1 (stereo not shown) [N-[[4-(allyloxy)phenyl](5-chloro-8-hydroxyquinolin-7-yl)methyl]-2-phenoxyacetamide] |  |  | inhibition at 22 µM (Agg-1; @ 22000 nM, read-out: Agg1 %): 52%
CN(CC(=O)NC(c1cccc(F)c1)c1cc(Cl)c2cccnc2c1O)Cc1ccccc1 (stereo not shown) [Example 55, N^2-benzyl-N^1-[(5-chloro-8-hydroxyquinolin-7-yl)(3-fluorophenyl)methyl]-N^2-methylglycinamide] |  |  | IC50 [1, 2]: 1.44 µM
COc1cc(OC)cc(C(NC(=O)COc2ccccc2)c2cc(Cl)c3cccnc3c2O)c1 (stereo not shown) [N-[(5-chloro-8-hydroxyquinolin-7-yl)(3,5-dimethoxyphenyl)methyl]-2-phenoxyacetamide] |  |  | IC50 [1, 2]: 1.09 µM

More lines, main results first:

IC50 (Agg-1) [µM] | IC50 ([1]; read-out: Agg2 IC50) [µM] | Compound | further results
 | 1.2 | O=C(COc1ccccc1)NC(c1ccc(F)cc1)c1cc(Cl)c2cccnc2c1O (stereo not shown) [N-[(5-chloro-8-hydroxyquinolin-7-yl)(4-fluorophenyl)methyl]-2-phenoxyacetamide] | inhibition at 67 µM (Agg-1; @ 67000 nM, read-out: Agg1 %): 48%
> 67 | ~2.5 | O=C(NC(c1ccccc1Cl)c1cc(Cl)c2cccnc2c1O)OCc1ccccc1 (stereo not shown) [benzyl [(5-chloro-8-hydroxyquinolin-7-yl)(2-chlorophenyl)methyl]carbamate] | Agg-2 FRET Median PCT INHIB [1]: 56%
> 20 | 3.76 | CC(=O)Nc1cccc(C(NC(=O)COc2ccccc2)c2cc(Cl)c3cccnc3c2O)c1 (stereo not shown) [Example 204, N-[[3-(acetylamino)phenyl](5-chloro-8-hydroxyquinolin-7-yl)methyl]-2-phenoxyacetamide] | IC50 [1, 2]: 3.76 µM
66 to 200 | 3.3 | O=C(COc1ccc(-c2ccccc2)cc1)NC(c1ccccc1Cl)c1cc(Cl)c2cccnc2c1O (stereo not shown) [2-(biphenyl-4-yloxy)-N-[(5-chloro-8-hydroxyquinolin-7-yl)(2-chlorophenyl)methyl]acetamide] | 
 | 2.48 | O=C(COc1ccccc1)NC(c1ccccc1)c1cc(Br)c2cccnc2c1O (stereo not shown) [N-[(5-bromo-8-hydroxyquinolin-7-yl)(phenyl)methyl]-2-phenoxyacetamide] | inhibition at 22.2 µM (Agg-1; read-out: Agg1 %): 64%; IC50 [1, 2]: 2.48 µM
> 20 |  | O=C(COc1ccccc1)NC(c1ccc([N+](=O)[O-])cc1)c1cc(Cl)c2cccnc2c1O (stereo not shown) [N-[(5-chloro-8-hydroxyquinolin-7-yl)(4-nitrophenyl)methyl]-2-phenoxyacetamide] | 
11.4 |  | O=C(COc1ccccc1)NC(c1ccccc1Cl)c1cc([N+](=O)[O-])c2cccnc2c1O (stereo not shown) [N-[(2-chlorophenyl)(8-hydroxy-5-nitroquinolin-7-yl)methyl]-2-phenoxyacetamide] | 
> 22 |  | O=C(COc1ccccc1)NC(c1ccccc1)c1cc(Cl)c2cccnc2c1O (stereo not shown) [N-[(5-chloro-8-hydroxyquinolin-7-yl)(phenyl)methyl]-2-phenoxyacetamide] | 
19.3 |  | O=C(COc1ccccc1)NC(c1ccccc1)c1cc([N+](=O)[O-])c2cccnc2c1O (stereo not shown) [N-[(8-hydroxy-5-nitroquinolin-7-yl)(phenyl)methyl]-2-phenoxyacetamide] | 
